Data published in patent US11982671B2, “Identification of a T cell epitope of Prevotella copri that induces T cell responses in patients with rheumatoid arthritis” (priority 2016, dated 2024).

Assays:
[1] = test system: PBMC from RA patients; experiment: IFN-γ/IL17 Double-Color ELISpot with GNS, FLNA and microbial peptides; assay type: cell-based, human; details: 24 NORA patients, single peptide 1 μM
Method: Enzyme-linked immunospot (ELISpot) T cell assay. A detailed description of the methods for isolation and identification of HLA-DR presented peptides is given in previous publications (19, 20). In the current study, all non-redundant HLA-DR-presented peptides identified from patient RA1 were synthesized (Mimotopes, Australia) and tested for reactivity in sets of 3 (1 μM of each peptide) with the patient's PBMC using IFN-γ ELISpot assays. […] For testing in larger numbers of patients and control subjects who would have a range of HLA-DR genotypes, the original peptides identified from the patient (shown in bold) and 3 additional promiscuous peptides that were predicted to bind>16 HLA-DR molecules were synthesized and HPLC-purified in the MGH Core Facility. The sequences of the GNS peptides were as follows: 47PNVVLLLTDDQDE59 (SEQ ID NO: 13), 222FEPFFMMIATPAPH235 (SEQ ID NO: 14), 451TYACVRTMSALWNLQ465 (SEQ ID NO: 15), 504NYRLMMLQSCSGPTC518 (SEQ ID NO: 16). The sequences of the FLNA peptides were as follows: 73DGLRLIALLEVLSQKK88 (SEQ ID NO: 17), 118SIKLVSIDSKAIVDG132 (SEQ ID NO: 18), 416VEVVIQDPMGQKG428 (SEQ ID NO: 19), 2446NPAEFVVNTSNAGAG2460 (SEQ ID NO: 20).
To assess microbial sequence homology with the GNS peptide 222FEPFFMMIATPAPH235 (SEQ ID NO: 21), the following microbial peptides were tested: 231KKPFFMMVAMNPPH245 (SEQ ID NO: 22), which was derived from the arylsulfatase protein of Prevotella sp. (WP_062433009.1) and 247DVPFFMMWTTPLPH261 (SEQ ID NO: 23), derived from the N-acetylgalactosamine-6-sulfatase of Parabacteroides sp. (WP_046148720.1).
To evaluate the microbial sequence homology for the FLNA peptide 2446NPAEFVVNTSNAGAG2460 (SEQ ID NO: 24), the following microbial peptides were tested: 133QGFVVKTANAGAL146 (SEQ ID NO: 25), which was derived from an uncharacterized protein of Prevotella sp. (WP_028897633.1) and 90ANFMINVSNAGAL103 (SEQ ID NO: 26), derived from an uncharacterized protein of Butyricimonas sp. (WP_065219401.1). The RA patients' PBMC were stimulated with the pool of peptides or single peptides, and analyzed for reactivity with a human IFN-γ/IL17 Double-Color ELISpot kit (Cellular Technology Limited). All peptides (1 μM) were tested in duplicate wells, as were positive (phytohemagglutinin) and negative (no antigen) control samples. After 5 days, cells were transferred to ELISpot plates coated with IFN-γ/IL17 antibodies, and incubated overnight. Images of wells were captured using ImmunoSpot series 3B analyzer, and spots were counted using ImmunoSpot software. A positive T cell response was defined as 3 standard deviations (SD) above the mean value of healthy control subjects.

[2] = test system: PBMC from RA patients; experiment: IFN-γ/IL-17 ELISpot T cell assay with Pc-p27 peptides; assay type: cell-based, human
Excerpt: Enzyme-linked immunospot (ELISpot) T cell assay. A detailed description of the methods for isolation and identification of HLA-DR presented peptides is given in Seward et al., 2011. In initial experiments in this study, one microbial peptide (^2KRIILILTVLLAMLGQVAY^20)(SEQ ID NO: 6) derived from a 27 kDa P. copri protein (WP_022121928.1) was identified from the PBMC of one RA patient. This P. copri peptide and 2 additional peptides from the same protein, which were predicted to be promiscuous T cell epitopes (^52DYRGYWTMRYQFDSATVS^69 (SEQ ID NO: 7), ^118EKINSLPTSSTGI^130 (SEQ ID NO: 8)), were synthesized and HPLC-purified in the Core Proteomics Laboratory at MGH. […] Cells were then transferred to Dual Color ELISpot plates coated with IFN-γ/IL17 antibodies (Cellular Technology Limited), and incubated overnight at 37° C. Images of wells were captured using ImmunoSpot series 3B analyzer, and spots were counted using ImmunoSpot software. A positive T cell response was defined as 3 standard deviations (SD) above the mean value of healthy subjects.

[3] = test system: serum IgG and IgA autoantibodies; experiment: ELISA for serum IgG and IgA anti-GNS and anti-FLNA autoantibodies; assay type: binding, human; details: for patients with IgA antibody responses >3 SD above HC: 101 RA patients; for patients with IgG antibody responses >3 SD above HC: 101 RA patients (NORA and CRA), serum diluted 50-fold; for IgG antibody responses to citrullinated versus uncitrullinated protein: 46 RA patients, protein citrullinated in vitro with rhPAD4
Method: ELISA for serum IgG and IgA anti-GNS and anti-FLNA autoantibodies. ELISA plates were coated with 0.5 μg/ml of recombinant human N-acetylglucosamine-6-sulfatase (Novoprotein, Summit, N.J.) or filamin A (Novusbio, Littleton, Colo.) overnight at 4° C. Subsequent incubations and washes were performed at room temperature. After washing with phosphate buffered saline with 0.05% Tween-20 (PBST), the plates were blocked with blocking buffer (5% nonfat dry milk in PBST) for one hour. Afterwards, 100 μl of each patient's serum sample (diluted 50-fold) was added in duplicate wells for 1.5 hours, followed by horseradish-peroxidase (HRP)-conjugated goat anti-human IgG (sc-2453, Santa Cruz Biotech) or HRP-conjugated goat anti-human IgA (Bio-Rad, Hercules, Calif.), and then TMB substrate (BD, San Diego, Calif.). For inter-plate standardization, 2 control samples were included with each assay.
In vitro citrullination assay. Human recombinant N-acetylglucosamine-6-sulfatase (2 μg) or filamin A (2 μg) were incubated with rhPAD-4 (400 ng), generously provided by Maximilian Koenig from the laboratory of Felipe Andrade, in 1M Tris (pH 7.6) in presence of 200 mM CaCl2. A negative control reaction was performed substituting 200 mM CaCl2 with 200 mM EDTA. Incubation was performed at 37° C. for 3 hours. Protein citrullination was determined by anti-modified citrulline immunoblotting, according to the recommendations of the manufacturer (Millipore).

With NPAEFVVNTSNAGAG [FLNA peptide] the “patients with T cell reactivity >3SD above the mean values in HC” value (“patients … in HC” below) [1] was 38%.

“ANFMINVSNAGAL (Butyricimonas sp. Marseille-P2440) [Butyricimonas peptide, peptide from an uncharacterized protein of Butyricimonas sp]” was tested, and the “patients … in HC” value [1] was 29%.

For “FEPFFMMIATPAPH (listed as Homo sapiens) [GNS peptide, HLA-DR-presented self peptide from N-acetylglucosamine-6-sulfatase]”, the “patients … in HC” value [1] was 33%.

For “DVPFFMMWTTPLPH (Parabacteroides sp. HGS0025) [Parabacteroides peptide, peptide from N-acetylgalactosamine-6-sulfatase of Parabacteroides sp]”, the “patients … in HC” value [1] was 25%.

For “KKPFFMMVAMNPPH (Prevotella sp. DNF00663) [Prevotella peptide, peptide from arylsulfatase protein of Prevotella sp., homologous to the GNS peptide]”, the “patients … in HC” value [1] was 38%.

In the case of “QGFVVKTANAGAL (Prevotella sp. HUN102) [corresponding Prevotella peptide, peptide from an uncharacterized protein of Prevotella sp., homologous to the FLNA peptide]”, the “patients … in HC” value [1] is reported as 42%.

For “KRIILILTVLLAMLGQVAY (listed as Prevotella copri) [Pc-p27 peptide 1]”, the “patients whose PBMC secreted IFN-γ >3 SD above the mean value of HC” value ([2]; 40 RA patients (39 NORA + RA1), peptide 1 μM, 5 days) was 42%, the “T cell reactivity of PBMC from Lyme arthritis patients” value ([2]; LA patients, peptide 1 μM) was “lacked reactivity” and the “patients with IFN-γ response, peptide with or without citrullination” value ([2]; RA patients, FIG. 1D) was 44%. For the same molecule, the “IFN-γ secreted by patient RA1 T cells relative to background” value ([2]; patient RA1 PBMC, peptide 1, 2 and 4 μM, background = no antigen) was over 3 times background.

B1: FLNA: recombinant human filamin A (Novusbio) (protein)
chain: GAPGPGPADASKVVAKGLGLSKAYVGQKSSFTVDCSKAGNNMLLVGVHGPRTPCEEILVKHVGSRLYSVSYLLKDKGEYTLVVKWGDEHIPGSPYRVVVP
In the case of B1, the “patients with IgA antibody responses >3 SD above HC” value [3] is reported as 15% and the “patients with IgG antibody responses >3 SD above HC” value [3] is reported as 27%.

B2: citrullinated FLNA: recombinant filamin A citrullinated in vitro with rhPAD-4 (protein)
chain: GAPGPGPADASKVVAKGLGLSKAYVGQKSSFTVDCSKAGNNMLLVGVHGPRTPCEEILVKHVGSRLYSVSYLLKDKGEYTLVVKWGDEHIPGSPYRVVVP
For B2, the “IgG antibody responses to citrullinated versus uncitrullinated protein” value [3] was “not significantly different”.

B3: GNS: recombinant human N-acetylglucosamine-6-sulfatase (Novoprotein) (protein)
chain: VFGVAAGTRRPNVVLLLTDDQDEVLGGMTPLKKTKALIGEMGMTFSSAYVPSALCCPSRASILTGKYPHNHHVVNNTLEGNCSSKSWQKIQEPNTFPAILRSMCGYQTFFAGKYLNEYGAPDAGGLEHVPLGWSYWYALEKNSKYYNYTLSINGKARKHGENYSVDYLTDVLANVSLDFLDYKSNFEPFFMMIATPAPHSPWTAAPQYQKAFQNVFAPRNKNFNIHGTNKHWLIRQAKTPMTNSSIQFLDNAFRKRWQTLLSVDDLVEKLVKRLEFTGELNNTYIFYTSDNGYHTGQFSLPIDKRQLYEFDIKVPLLVRGPGIKPNQTSKMLVANIDLGPTILDIAGYDLNKTQMDGMSLLPILRGASNLTWRSDVLVEYQGEGRNVTDPTCPSLSPGVSQCFPDCVCEDAYNNTYACVRTMSALWNLQYCEFDDQEVFVEVYNLTADPDQITNIAKTIDPELLGKMNYRLMMLQSCSGPTCRTPGVFDPGYRFDPRLMFSNRGSVRTRRFSKHLL
In the case of B3, the “patients with IgA antibody responses >3 SD above HC” value [3] is reported as 16%, the “patients with IgG antibody responses >3 SD above HC” value [3] is reported as 32% and the “positive IgG antibody responses in patients with other diseases and healthy controls” value ([3]; 106 patients with LA, SpA or CTD, 50 healthy control subjects) is reported as “none”.

B4: citrullinated GNS: recombinant GNS citrullinated in vitro with rhPAD-4 (protein)
chain: VFGVAAGTRRPNVVLLLTDDQDEVLGGMTPLKKTKALIGEMGMTFSSAYVPSALCCPSRASILTGKYPHNHHVVNNTLEGNCSSKSWQKIQEPNTFPAILRSMCGYQTFFAGKYLNEYGAPDAGGLEHVPLGWSYWYALEKNSKYYNYTLSINGKARKHGENYSVDYLTDVLANVSLDFLDYKSNFEPFFMMIATPAPHSPWTAAPQYQKAFQNVFAPRNKNFNIHGTNKHWLIRQAKTPMTNSSIQFLDNAFRKRWQTLLSVDDLVEKLVKRLEFTGELNNTYIFYTSDNGYHTGQFSLPIDKRQLYEFDIKVPLLVRGPGIKPNQTSKMLVANIDLGPTILDIAGYDLNKTQMDGMSLLPILRGASNLTWRSDVLVEYQGEGRNVTDPTCPSLSPGVSQCFPDCVCEDAYNNTYACVRTMSALWNLQYCEFDDQEVFVEVYNLTADPDQITNIAKTIDPELLGKMNYRLMMLQSCSGPTCRTPGVFDPGYRFDPRLMFSNRGSVRTRRFSKHLL
B4 was tested, and the “IgG antibody responses to citrullinated versus uncitrullinated protein” value [3] was “higher”.
